Results on 14 molecules are retold here after ChEMBL document CHEMBL1201862, “PubChem BioAssay data set” (2004).

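Where inhibition never reached the appropriate level, the endpoint shown equals the highest concentration tested. Otherwise, values were interpolated linearly from a five-concentration, 48-hour dose response in 96-well plates. The concentration for 50% growth inhibition is given as GI50.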 Activity calls are given as the source filed them. Cut-off read from the data, not from the text of the source: active = GI50 up to about 1.1 µM and inactive = higher.

Assay in all cases: NCI anticancer screen, dose series, 48 h
In test [1] the test system is MOLT-4.
For test [2], the system named is K562.
Test [3] has as its system IGROV-1.
The test system of test [4] is SK-MEL-5.
For test [5], the system named is KM12.
For test [6], the system named is SW-620.
The test system of test [7] is NCI/ADR-RES.
Test [8] relates to NCI-H522.
For test [9], the system named is HL-60.
Test [10] concerns CCRF-CEM.
Test [11] has as its system HOP-92.
Test [12] has as its system OVCAR-5.
In test [13] the test system is 786-0.
In test [14] the test system is SK-MEL-28.
Test [15] concerns SF-268.
Test [16] relates to Hs-578T.
Test [17] concerns MDA-MB-231.
Test [18] concerns DU-145.
For test [19], the system named is MDA-N.

Turning to `COc1cc2c(c(OC)c1OC)C(=O)NCCC2`, the GI50 in [1], in test [2], in [3], in [4], in test [5] and in test [6] was > 100 µM (inactive) throughout. Besides, the GI50 is > 100 µM (inactive) in [7]; > 100 µM (inactive) in test [8]; > 63.1 µM (inactive) in [9]; > 100 µM (inactive) in [10]; > 100 µM (inactive) in test [11]; > 100 µM (inactive) in test [12]. The GI50 in test [13], in test [14] and in test [15] was > 100 µM (inactive) each time.

Regarding `CCCCOC(=O)NC(=O)c1cn(C2CCCCC2)c(=O)[nH]c1=O`, the GI50 was 98.6 µM (inactive) in test [1]; > 100 µM (inactive) in test [2]; 39.2 µM (inactive) in test [3]; 86.1 µM (inactive) in test [5]; > 100 µM (inactive) in test [6]; 26.9 µM (inactive) in test [8]. The GI50 in test [9] is > 100 µM (inactive); in [10], > 100 µM (inactive); in test [11], 14.3 µM (inactive); in test [12], > 100 µM (inactive); in test [13], 18.6 µM (inactive); in test [14], 39.8 µM (inactive). Further, the GI50 in test [15] was 30.8 µM (inactive).

As to `COc1ccccc1-n1c(N)c2c(C)c(-c3ccccc3)[nH]c2nc1=S`, the GI50 in test [1] is > 100 µM (inactive); in test [2], > 100 µM (inactive); in [4] it was 4.76 µM (inactive); in [5], > 100 µM (inactive); in [6], > 100 µM (inactive); in test [8], > 100 µM (inactive). Further, the GI50 in [9], in test [10], in test [11], in test [12], in [13] and in test [14] was > 100 µM (inactive) throughout.

As for `COc1ccc(OC2(c3cc(OC)ccc3OC)OC(=O)c3ccccc32)cc1` (centres undefined), the GI50 in test [1], in test [2], in test [3], in test [4], in test [5] and in [6] was > 100 µM (inactive) in each case. Also, the GI50 in test [8], in test [9], in test [10], in test [11], in test [12] and in [13] was > 100 µM (inactive) in each case. The GI50 in test [14] and in test [15] was > 100 µM (inactive) each time.

For the molecule `CCOC(OC1=C(C#N)CCCC1)C(C)[Se]c1ccccc1` (centres undefined), the GI50 was 29 µM (inactive) in [1]; 62.1 µM (inactive) in [2]; 29.2 µM (inactive) in [3]; 20.6 µM (inactive) in test [4]; > 100 µM (inactive) in test [5]; 16 µM (inactive) in test [8]. The GI50 in test [9] is 17.3 µM (inactive); in test [10] it was 21.7 µM (inactive); in [11] it was 31.6 µM (inactive); in test [12], > 100 µM (inactive); in test [13] it was 15.5 µM (inactive); in [14], 26 µM (inactive). Moreover, the GI50 in [15] was 18.5 µM (inactive).

As for `CC/C(=C\c1ccc(Cl)c(Cl)c1)[N+](=O)[O-]`, the GI50 in [1] is 0.236 µM (active); in test [16], 3.48 µM (inactive); in [2], 2.13 µM (inactive); in [3], 1.64 µM (inactive); in test [4] it was 1.97 µM (inactive); in test [5], 2.96 µM (inactive). Moreover, the GI50 in test [6] was 3.03 µM (inactive); in [7], 2.27 µM (inactive); in test [8] it was 1.72 µM (inactive); in test [9], 1.18 µM (inactive); in test [17], 2.53 µM (inactive); in test [12], 2.06 µM (inactive). Besides, the GI50 was 1.86 µM (inactive) in test [18], 1.59 µM (inactive) in test [13], 2.06 µM (inactive) in test [14] and 2.03 µM (inactive) in [15].

`Cc1ccc(NC(=O)CC2C(=O)Nc3ccccc3[S+]2[O-])c(C)c1` (centres undefined): the GI50 in test [1] is 6.28 µM (inactive); in [2], 4.03 µM (inactive); in test [3], 12.8 µM (inactive); in test [4] it was 4.11 µM (inactive); in [5] it was 4.6 µM (inactive); in test [6] it was 5.81 µM (inactive). Moreover, the GI50 is 6.89 µM (inactive) in test [8]; 2.86 µM (inactive) in [9]; 11.5 µM (inactive) in test [10]; 13.9 µM (inactive) in test [11]; 53.7 µM (inactive) in test [12]; 15.1 µM (inactive) in test [13]. Moreover, the results for the GI50 in test [14] and in test [15] were 15.8 µM (inactive) and 24.5 µM (inactive), respectively.

`COC(=O)C(CCCN1C(=O)c2ccccc2C1=O)C(=O)OC`: the GI50 in test [1], in test [2], in test [3], in test [4], in test [5] and in test [6] was > 100 µM (inactive) in each case. The GI50 in test [8], in test [9], in test [10], in test [11], in test [12] and in [13] was > 100 µM (inactive) throughout. Also, the GI50 in test [14] and in test [15] was > 100 µM (inactive) each time.

On to `Cn1ccnc1Cn1cc(-c2cccc(-c3cn[nH]c3)c2)cn1`, for which the GI50 in [1] was 63.4 µM (inactive); in [2], 55 µM (inactive); in test [4] it was > 100 µM (inactive); in test [5], > 100 µM (inactive); in [6] it was 82.6 µM (inactive); in test [8], 22.6 µM (inactive). Also, the GI50 in test [9] is > 100 µM (inactive); in test [10] it was 58.5 µM (inactive); in test [11], 50.1 µM (inactive); in [13] it was > 100 µM (inactive); in [14], > 100 µM (inactive); in test [15], 44.6 µM (inactive).

As to `COc1cc(C2c3cc4c(cc3[C@@H](OCCN)[C@H]3COC(=O)C23)OCO4)cc(OC)c1O` (some centres undefined), the GI50 in [1] was < 0.01 µM (active); in test [2] it was 0.181 µM (active); in test [3], 1.15 µM (inactive); in test [4] it was 0.2 µM (active); in test [5], 0.491 µM (active); in test [6] it was 0.179 µM (active). In addition, the GI50 in test [8] is 0.155 µM (active); in test [9], < 0.01 µM (active); in [10], 0.0316 µM (active); in test [11] it was 0.082 µM (active); in [12] it was 0.644 µM (active); in test [13] it was 0.082 µM (active). Also, the GI50 in test [14] was 0.518 µM (active); in [15], 0.159 µM (active).

With `COc1cc2c(cc1O)CN1CCC23C=C[C@@H](O)CC13` (some centres undefined), the GI50 in test [1] is 45.5 µM (inactive); in [2] it was 51.3 µM (inactive); in test [3], 88.3 µM (inactive); in [4] it was 39.6 µM (inactive); in test [5] it was 54 µM (inactive); in [6] it was 59.6 µM (inactive). For the same molecule, the GI50 is 52.4 µM (inactive) in test [8]; 15.2 µM (inactive) in test [9]; 28.2 µM (inactive) in test [10]; > 100 µM (inactive) in test [11]; > 100 µM (inactive) in test [12]; 76.4 µM (inactive) in [13]. Also, the GI50 in test [14] was 76.4 µM (inactive); in test [15], 59.6 µM (inactive).

Take `O=C1C(c2ccc([N+](=O)[O-])cc2)=[N+]([O-])c2ccccc21`: the GI50 in [1] was 31.5 µM (inactive); in test [2] it was 26.5 µM (inactive); in test [3], 43.3 µM (inactive); in [4] it was 16.3 µM (inactive); in [5], 34.8 µM (inactive); in test [6] it was 32.4 µM (inactive). Further, the GI50 in [8] is 8.57 µM (inactive); in test [9] it was 25.8 µM (inactive); in [10], 22.9 µM (inactive); in test [11], 31 µM (inactive); in [12], 22.8 µM (inactive); in test [13] it was > 100 µM (inactive). Further, the GI50 was 29.3 µM (inactive) in test [14] and 40.8 µM (inactive) in [15].

Turning to `CC1=C2C(=CC(C)(C)[C@@H]2O)C(=O)[C@](C)(O)C12CC2` [ILLUDIN M], the GI50 in test [1] is 0.01 µM (active); in test [2], 0.0181 µM (active); in test [3], 0.00989 µM (active); in [4] it was 0.0126 µM (active); in [5] it was 0.0284 µM (active); in test [6], 0.013 µM (active). Further, the GI50 was 0.0115 µM (active) in [8]; 0.0156 µM (active) in test [9]; 0.0168 µM (active) in [10]; 0.0193 µM (active) in test [11]; 0.0183 µM (active) in test [12]; 0.01 µM (active) in test [13]. Further, the GI50 is < 0.0209 µM (active) in test [14], 17.1 nM (active) in test [19] and 0.0162 µM (active) in test [15].

With `COC(=O)[C@H]1[C@H]2C[C@@H]3c4[nH]c5cc(OC)ccc5c4CCN3C[C@H]2C[C@@H](OC(=O)c2cc(OC)c(OC)c(OC)c2)[C@@H]1OC` [RESERPINE], the GI50 in [1] was 7.19 µM (inactive); in test [2] it was 7.11 µM (inactive); in [3], 21.5 µM (inactive); in test [4], 15.7 µM (inactive); in test [5], 18.4 µM (inactive); in test [6], 26.8 µM (inactive). The GI50 in test [8] was 17.9 µM (inactive); in test [9], 14.2 µM (inactive); in test [10] it was 13.2 µM (inactive); in test [11], 10.8 µM (inactive); in [12] it was 38 µM (inactive); in test [13], 14.2 µM (inactive). Besides, the GI50 in test [14] is > 10 µM (inactive); in test [15], 28.1 µM (inactive).
